Data: US12630856B2, “Identification of host-targeting modulators of bacterial uptake and assay for quantifying intracellular bacteria” (priority 2020, dated 2026)
Where a name gives a salt, the structure may show the parent alone.

What was measured:
Assay type in all cases: cell-based
bacterial uptake = assay: CFU plating to confirm uptake enhancement
Protocol: CFU plating was performed to confirm the enhancement.

[1] = system: Escherichia coli uptake by RAW 264.7 macrophages; assay: CFU-less assay (CLA) screen of 2,400 approved drugs for modulators of bacterial uptake
Pseudomonas species = assay: Attenuation of infection by Pseudomonas
Salmonella species = assay: Attenuation of infection by Salmonella
Acinetobacter species = assay: Attenuation of infection by Acinetobacter
[2] = system: intracellular and extracellular bacterial strains in RAW 264.7 macrophages; assay: Uptake and intracellular survival of bacterial strains in RAW 264.7 macrophages (FIG. 21)
Excerpt: This confirms the results of the screen and expands potential uses. Quinacrine was previously known as an antiparasitic, an anti-inflammatory agent, intrapleural sclerosing agent, a pneumothorax prophylaxis, Creutzfeldt-Jakob disease (CJI)) therapy, and as an anticancer agent (FIG. 21).

Klebsiella species = assay: Attenuation of infection by Klebsiella
E. coli = assay: Axenic growth of bacteria (CFU-less assay / optical density); settings: varying amounts of compound, FIG. 19
Excerpt: In some embodiments, methods for measuring bacterial growth rate in axenic culture are described. The methods comprise: • (a) expressing in the bacteria a fluorescent protein; • (b) growing the bacteria in axenic culture; and • (c) measuring fluorescence in the culture at regular intervals.
The CFU-less assay can reliably detect compound cytotoxicity in axenic medium. The compound(s) of interest were combined with either the host cell or the pathogen in an axenic medium to analyze toxicity of the compound(s) on the host cell or pathogen. The graphs below show an example of how the compounds from the screen affect axenic growth of E. coli. The effects of the compounds on axenic growth of E. coli were minimal.

Q: What does the source list for CO[C@H]1C[C@H](O[C@H]2[C@H](C)O[C@@H](O[C@@H]3/C(C)=C/C[C@@H]4C[C@@H](C[C@]5(C=C[C@H](C)[C@@H](C6CCCCC6)O5)O4)OC(=O)[C@@H]4C=C(C)[C@@H](O)[C@H]5OC/C(=C\C=C\[C@@H]3C)[C@]54O)C[C@@H]2OC)O[C@@H](C)[C@@H]1O [Doramectin]?
A: confirmation of uptake enhancement by CFU plating (bacterial uptake): enhancement; bacterial uptake in the presence of the compound (FIG. 2) [1]: increase in bacterial uptake

Q: For CCN(CC)CCCC(C)Nc1c2ccc(Cl)cc2nc2ccc(OC)cc12 (stereo not shown) [Quinacrine hydrochloride], which “infection by Pseudomonas species” value (Pseudomonas species) is on record?
A: The value was “attenuated infection”.

Q: What about the “infection by Salmonella species” value (Salmonella species) of the same compound?
A: Its value is “attenuated infection”.

Q: What about the “infection by Acinetobacter species” value (Acinetobacter species) of the same compound?
A: The value was “attenuated infection”.

Q: What about the “intracellular survival of both intracellular and extracellular bacterial strains” value [2] of the same compound?
A: The value was “inhibitory effect”.

Q: And the “uptake of both intracellular and extracellular bacterial strains (dT)” value ([2]; FIG. 21)?
A: The value was “inhibitory effect (increased dT)”.

Q: And the “intracellular load of bacteria” value ([1]; screen of 2,400 compounds)?
A: The value was “decreases the intracellular load of bacteria”.

Q: What about the “infection by Klebsiella species” value (Klebsiella species) of the same compound?
A: Its value is “attenuated infection”.

Q: Polymyxin B sulfate was tested. Which “gram-negative bacterial growth in axenic culture” value (E. coli) did it give?
A: Its value is “inhibition of gram-negative bacterial growth”.
